Measured values published in patent US8637657B2, “Siderophore-mediated iron uptake in bacterial infection” (priority 2008, dated 2014).
“Also recorded” adds a separate entry of the source.

Tests used:
[1] = molecular target: T1, SbnF (Staphylococcus aureus, UniProt Q2G1M8); assay: hydroxylamine trapping (hydroxamate formation) assay, SbnF; type: biochemical, S. aureus; settings: 5 μM enzyme
T1 construct: 6xHis; made in house; host or cells: E. coli BL21 (DE3)
T1 sequence (Q2G1M8 25-616 limits assumed): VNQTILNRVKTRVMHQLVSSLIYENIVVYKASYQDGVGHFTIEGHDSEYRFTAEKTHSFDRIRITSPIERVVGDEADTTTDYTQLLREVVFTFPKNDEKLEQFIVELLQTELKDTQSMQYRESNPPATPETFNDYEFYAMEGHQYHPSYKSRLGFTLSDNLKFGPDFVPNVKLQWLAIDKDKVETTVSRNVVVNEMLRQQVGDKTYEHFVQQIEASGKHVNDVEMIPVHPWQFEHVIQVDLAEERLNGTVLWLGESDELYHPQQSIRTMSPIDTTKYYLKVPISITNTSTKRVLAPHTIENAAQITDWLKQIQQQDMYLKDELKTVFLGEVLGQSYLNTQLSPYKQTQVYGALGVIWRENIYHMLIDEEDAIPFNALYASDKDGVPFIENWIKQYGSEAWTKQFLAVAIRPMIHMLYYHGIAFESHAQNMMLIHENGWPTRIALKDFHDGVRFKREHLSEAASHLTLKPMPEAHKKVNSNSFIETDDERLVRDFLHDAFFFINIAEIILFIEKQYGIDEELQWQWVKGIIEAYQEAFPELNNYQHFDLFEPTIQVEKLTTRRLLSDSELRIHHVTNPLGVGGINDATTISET
Description: All reactions were performed in 300 μL volumes and the following were common to each reaction: 2.25 mM ATP, 15 mM MgCl2, 150 mM hydroxylamine, and 50 mM HEPES pH 7.4. […] Similarly, to assess which enzyme utilized α-KG as a substrate, 5 μM of SbnC, SbnE, or SbnF were incubated with 3 mM α-KG and the common reaction components. […] This reaction was then heat treated at 70° C. to deactivate SbnE and the reaction was then centrifuged at 14 500 rpm for 10 minutes to pellet precipitated enzyme. The supernatant which now contains the citryl-Dae intermediate was incubated with fresh 5 μM SbnF or SbnC, 2.25 mM ATP, and 150 mM hydroxylamine. To assess the potential recognition of citryl-Dap as a substrate for SbnF or SbnC, this intermediate was formed as described above except that Dae was replaced with 50 mM Dap instead. For each reaction, a duplicate control reaction was prepared in which the enzyme was previously inactivated by heating at 100° C. for 10 minutes. All reactions described above were incubated at room temperature in the dark for 1 hour before addition of 300 μL stopping solution which consisted of 10% (w/v) FeCl3 and 3.3% (w/v) trichloroacetic acid in 0.7 M HCl. Reactions were centrifuged at 20 000×g for 5 minutes to remove precipitate and the formation of ferric hydroxamate was detected spectrophotometrically at 540 nm. Relative absorbance values reported in this study were calculated by subtracting the absorbance of the control (boiled enzyme) reactions from the absorbance of experimental reactions.

[2] = chrome azurol S (CAS) assay of iron chelating / siderophore activity; settings: SbnE reaction product
Excerpt: Strains of S. aureus containing complete sbn operon deletions (i.e. deleted for all of sbnA through sbnI genes) were constructed. In S. aureus Newman background, the sbn deletion strain was called H1331 whereas in RN6390 background, it was called H1324. […] Supplementation of serum growth media with iron obviated the growth defect of H1331 (FIG. 1, inset), and suppressed siderophore production in both Newman and H1331 (FIG. 2). […] To ensure that this was not due to a strain-specific phenomenon, all experiments described above were repeated using instead the RN6390 genetic background (i.e. RN6390 vs. H1324). Equivalent results were obtained (data not shown).
To measure levels of siderophore activity, chrome azurol S (CAS) shuttle solution was prepared as described. In the case of in vitro synthesized staphyloferrin B, 50 μL of the reaction mixture were removed and diluted in 450 μL of deionized water followed by 500 μL of CAS shuttle solution in a 1 ml spectrophotometer cuvette. The mixture was then incubated in the dark for 45 minutes. Siderophore quantification and absorbance readings were performed as described (Beasley et al., 2009).

[3] = test system: S. aureus; assay: promotion of iron-starved growth of S. aureus; type: cell-based; settings: SbnE reaction product; data not shown
Description: Siderophore plate bioassays were performed as described (Beasley et al., 2009). Growth promotion, as measured by the diameter of the growth halo around each disk, was determined after 36 h incubation at 37° C.

[4] = test system: HtsA; assay: heme binding to purified HtsA (absorption spectra); design: species or system S. aureus; settings: in comparison to IsdE
Excerpt: FIG. 10 illustrates the absorption spectra of purified IsdE, HtsA and SirA proteins in the absence of heme (A) and on exposure to heme (B);
In liquid growth assays, no attenuation of the htsABC deletion mutant, H1665, when grown on heme as a sole iron source (data not shown) was observed.

[5] = molecular target: T2, SbnE (Staphylococcus aureus, UniProt Q2G1M9); assay: hydroxylamine trapping (hydroxamate formation) assay, SbnE; type: biochemical, S. aureus; settings: 5 μM enzyme, 3 mM substrate
T2 construct: 6xHis; made in house; host or cells: E. coli BL21 (DE3)
Description: All reactions were performed in 300 μL volumes and the following were common to each reaction: 2.25 mM ATP, 15 mM MgCl2, 150 mM hydroxylamine, and 50 mM HEPES pH 7.4. […] The supernatant which now contains the citryl-Dae intermediate was incubated with fresh 5 μM SbnF or SbnC, 2.25 mM ATP, and 150 mM hydroxylamine. To assess the potential recognition of citryl-Dap as a substrate for SbnF or SbnC, this intermediate was formed as described above except that Dae was replaced with 50 mM Dap instead. For each reaction, a duplicate control reaction was prepared in which the enzyme was previously inactivated by heating at 100° C. for 10 minutes. All reactions described above were incubated at room temperature in the dark for 1 hour before addition of 300 μL stopping solution which consisted of 10% (w/v) FeCl3 and 3.3% (w/v) trichloroacetic acid in 0.7 M HCl. Reactions were centrifuged at 20 000×g for 5 minutes to remove precipitate and the formation of ferric hydroxamate was detected spectrophotometrically at 540 nm. Relative absorbance values reported in this study were calculated by subtracting the absorbance of the control (boiled enzyme) reactions from the absorbance of experimental reactions.
Essentially, this assay is used to monitor the specific activity of a synthetase towards a particular carboxylic acid.

[6] = molecular target: T3, SbnC (Staphylococcus aureus, UniProt Q2G1N1); assay: hydroxylamine trapping (hydroxamate formation) assay, SbnC; type: biochemical, S. aureus; settings: 5 μM enzyme, 3 mM substrate
T3 construct: 6xHis; made in house; host or cells: E. coli BL21 (DE3)
T3 sequence (Q2G1N1 1-584): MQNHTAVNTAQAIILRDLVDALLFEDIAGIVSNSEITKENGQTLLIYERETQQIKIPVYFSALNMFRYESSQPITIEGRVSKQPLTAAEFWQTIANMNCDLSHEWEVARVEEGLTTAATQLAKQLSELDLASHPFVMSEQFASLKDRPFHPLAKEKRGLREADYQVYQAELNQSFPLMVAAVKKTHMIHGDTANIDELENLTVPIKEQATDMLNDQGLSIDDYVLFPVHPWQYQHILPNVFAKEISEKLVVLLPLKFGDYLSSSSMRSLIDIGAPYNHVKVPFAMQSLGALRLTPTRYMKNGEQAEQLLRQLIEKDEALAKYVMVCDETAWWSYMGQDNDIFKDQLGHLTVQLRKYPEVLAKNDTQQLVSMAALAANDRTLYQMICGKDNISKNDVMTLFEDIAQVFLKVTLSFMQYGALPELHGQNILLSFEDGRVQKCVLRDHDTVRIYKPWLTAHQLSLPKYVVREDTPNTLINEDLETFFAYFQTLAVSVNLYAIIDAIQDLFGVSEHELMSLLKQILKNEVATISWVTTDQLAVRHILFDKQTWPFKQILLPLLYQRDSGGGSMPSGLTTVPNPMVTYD
Description: To assess the potential recognition of citryl-Dap as a substrate for SbnF or SbnC, this intermediate was formed as described above except that Dae was replaced with 50 mM Dap instead. For each reaction, a duplicate control reaction was prepared in which the enzyme was previously inactivated by heating at 100° C. for 10 minutes. All reactions described above were incubated at room temperature in the dark for 1 hour before addition of 300 μL stopping solution which consisted of 10% (w/v) FeCl3 and 3.3% (w/v) trichloroacetic acid in 0.7 M HCl. Reactions were centrifuged at 20 000×g for 5 minutes to remove precipitate and the formation of ferric hydroxamate was detected spectrophotometrically at 540 nm. Relative absorbance values reported in this study were calculated by subtracting the absorbance of the control (boiled enzyme) reactions from the absorbance of experimental reactions.

[7] = test system: S. aureus SbnB mutant; type: cell-based; settings: compound added to growth media
Description: (§1) Using SbnA and SbnB mutants in growth culture assays, compounds were added to the growth media and tested for the ability to overcome the iron-restricted phenotype.

[8] = test system: siderophore-deficient S. aureus (ΔsfaΔsbn); assay: iron-starved growth of siderophore-deficient S. aureus with in vitro synthesized staphyloferrin B; type: cell-based; settings: enzymatic reaction material from complete reactions, increasing amounts
Description: Bacteria were cultured for 12 hours in TMS broth then 12 hours in TMS broth containing 100 μM 2,2′-dipyridyl (Sigma-Aldrich). Cells were washed twice in saline, and diluted 1:100 into 60% horse serum (Sigma-Aldrich)—40% TMS broth. For iron-replete media, 50 μM FeCl3 was included. Cultures were grown under constant, medium amplitude shaking in a Bioscreen C machine (Growth Curves, USA). Optical density was measured at 600 nm every 30 min. However, for clarity of growth curve figures, data are shown only at 2-hour intervals.
This staphyloferrin B-dependent growth promotion was mediated by the ABC transporter SirABC (FIG. 14B), which is encoded by the sirABC operon divergently transcribed from the sbn operon (FIG. 13A).

[9] = test system: Hts mutant; assay: disc growth assay with cell-free synthesized staphyloferrin A, Hts mutant; type: cell-based, S. aureus; settings: paper disk on agar plate, 37° C. for 24 hours
Description: (§2) Growth radius was measured around the disc after incubation of plates at 37° C. for 24 hours.

[10] = test system: wildtype S. aureus; assay: disc growth assay with cell-free synthesized staphyloferrin A, wildtype; type: cell-based; settings: paper disk on agar plate, 37° C. for 24 hours
Description: as §2

[11] = test system: HtsSir mutant; assay: disc growth assay with cell-free synthesized staphyloferrin A, HtsSir mutant; type: cell-based, S. aureus; settings: paper disk on agar plate, 37° C. for 24 hours
Description: as §2

[12] = test system: SirA mutant; assay: disc growth assay with cell-free synthesized staphyloferrin A, SirA mutant; type: cell-based, S. aureus; settings: paper disk on agar plate, 37° C. for 24 hours
Description: as §2

[13] = test system: S. aureus SbnA mutant; assay: growth culture assay, compounds added to overcome iron-restricted growth defect of SbnA mutant; type: cell-based; settings: compound added to growth media; data not shown
Description: as §1

T2 sequence (Q2G1M9 whole entry): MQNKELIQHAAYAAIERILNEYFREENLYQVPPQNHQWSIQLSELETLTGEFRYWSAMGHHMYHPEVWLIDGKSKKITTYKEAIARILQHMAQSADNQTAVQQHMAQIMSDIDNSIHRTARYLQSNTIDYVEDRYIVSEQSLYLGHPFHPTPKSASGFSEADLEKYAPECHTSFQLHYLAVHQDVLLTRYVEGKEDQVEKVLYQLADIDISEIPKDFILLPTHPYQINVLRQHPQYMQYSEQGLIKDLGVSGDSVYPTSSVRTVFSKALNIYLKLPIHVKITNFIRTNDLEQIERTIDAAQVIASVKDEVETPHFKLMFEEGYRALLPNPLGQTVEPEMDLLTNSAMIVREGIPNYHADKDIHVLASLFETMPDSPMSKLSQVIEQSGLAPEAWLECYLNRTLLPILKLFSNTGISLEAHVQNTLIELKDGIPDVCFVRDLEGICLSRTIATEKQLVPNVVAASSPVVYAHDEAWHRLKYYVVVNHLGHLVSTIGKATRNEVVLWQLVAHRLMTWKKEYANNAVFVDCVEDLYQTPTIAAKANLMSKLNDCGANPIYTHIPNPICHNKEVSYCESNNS

## NCCNC(=O)CC(O)(CC(=O)O)C(=O)O (stereo not drawn) [citryl-Dae]
[1]
  activity of SbnF towards carboxylic acid substrate: high levels of activity

## NC(CNC(=O)CC(O)(CC(=O)O)C(=O)O)C(=O)O (stereo not drawn) [β-citryl-Dap intermediate]
[2]
  reaction with CAS reagent: reacted strongly
[3]
  promotion of iron-starved growth of S. aureus: unable to promote
[1]
  activity of SbnF towards carboxylic acid substrate: did not react

## C=CC1=C(C)c2cc3[n-]c(cc4[n-]c(cc5nc(cc1n2)C(C)=C5C=C)c(C)c4CCC(=O)O)c(CCC(=O)O)c3C.[Fe+2] [heme]
[4]
  heme association with purified HtsA: little to no heme would associate

## O=C(O)CCC(=O)C(=O)O [α-KG, α-ketoglutarate]
[5]
  activity of SbnE towards carboxylic acid substrate: not
[6]
  activity of SbnC towards carboxylic acid substrate: activates
[1]
  activity of SbnF towards carboxylic acid substrate: not

## O=C(O)CC(O)(CC(=O)O)C(=O)O [citrate]
[5]
  activity of SbnE towards carboxylic acid substrate: high level of specific activity
[1]
  activity of SbnF towards carboxylic acid substrate: small level of activity

## O=C(O)[C@@H]1CCCN1 [proline]
[7]
  overcoming the iron-restricted growth defect of the SbnB mutant: unable to overcome

## N[C@@H](CNC(=O)C[C@@](O)(CC(=O)NCCNC(=O)CCC(=O)C(=O)O)C(=O)O)C(=O)O [staphyloferrin B]
[8]
  promotion of iron-starved growth of siderophore-deficient S. aureus (ΔsfaΔsbn): readily promote the iron-starved growth; also recorded: reaching levels comparable to growth in the presence of iron

## O=C(O)CC(O)(CC(=O)NCCC[C@@H](NC(=O)CC(O)(CC(=O)O)C(=O)O)C(=O)O)C(=O)O (stereo partly drawn) [Staphyloferrin A, staphyloferrin A]
[9]
  growth promotion of Hts mutant: did not promote growth
[10]
  growth promotion of wildtype S. aureus: promoted growth
[11]
  growth promotion of HtsSir mutant: did not promote growth
[12]
  growth promotion of SirA mutant: promoted growth

## NCC(N)C(=O)O (stereo not drawn) [2,3-diamonpropionate, 2,3-diaminopropionate]
[13]
  overcoming the iron-restricted growth defect of the SbnA mutant: can be overcome
[7]
  overcoming the iron-restricted growth defect of the SbnB mutant: can be overcome
